Measurements from patent US20250206761A1, “HALOINDOLE MACROCYCLIC COMPOUNDS FOR THE TREATMENT OF CANCER” (Hoffmann-La Roche Inc., priority 2022, published 2025).

Legend:
Type in all cases: cell-based, human
[1] = test system: phosphorylation of ERK, KRAS G12V in SW620; assay: pERK inhibition assay, KRAS G12V; conditions: Homo sapiens, SW-620, SW620, 4 hours
How it was run: (§1)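 4 h compound treatment (0.5% DMSO final) of overnight-plated cells; formaldehyde fix, cold MeOH permeabilization, BSA block. Anti-pERK primary overnight at 4 °C, HRP anti-rabbit secondary, TMB readout at OD450. IC50 via 4-parameter sigmoidal model.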

[2] = test system: phosphorylation of ERK, KRAS G12D in AGS cells; assay: pERK inhibition assay, KRAS G12D; conditions: Homo sapiens, 4 hours
How it was run: as §1

SW620 (ATCC-CCL-227) = assay: Cell viability assay, G12V (SW620); conditions: Homo sapiens, SW-620; KRAS cell viability, SW620, 72 hrs, Cell Counting Kit-8
How it was run: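 Read-out is CCK-8 absorbance (OD450 minus OD650, 2 hrs after reagent), reflecting NADPH after 72 hrs of compound exposure in 0.5% DMSO. Seeding density was 5,000 cells/well for NCI-H358 and 2,000 for AGS and SW620. IC50 derived by 4-parameter sigmoidal fitting.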

[3] = test system: phosphorylation of ERK, KRAS G12C in NCJ-H358 cells; assay: pERK inhibition assay, KRAS G12C; conditions: Homo sapiens, 4 hours
How it was run: as §1

SMILES | IC50 [1] [nM] | IC50 [2] [nM] | IC50 (SW620 (ATCC-CCL-227)) [nM] | IC50 [3] [nM]
CO[C@@H](C)c1ncc(N2CCN(C)CC2)cc1-c1c2c3cc(c(F)cc3n1CC(F)(F)F)-c1csc(n1)C[C@H](NC(=O)[C@H](C(C)C)N1CCCC3(CN(C(=O)[C@H](F)Cl)C3)C1=O)C(=O)N1CCC[C@H](N1)C(=O)OCC(C)(C)C2 (atropisomer, axis not shown; (M)) [Example 11, (2S)-2-[2-[(2R)-2-chloro-2-fluoro-acetyl]-5-oxo-2,6-diazaspiro[3.5]nonan-6-yl]-N-[(7S,13S)-24-fluoro-(20M)-20-[2-[(1S)-1-methoxyethyl]-5-(4-methylpiperazin-1-yl)-3-pyridyl]-17,17-dimethyl-8,14-dioxo-21-(2,2,2-trifluoroethyl)-15-oxa-4-thia-9,21,27,28-tetrazapentacyclo[17.5.2.1^2,5.1^9,13.0^22,26]octacosa-1(25),2,5(28),19,22(26),23-hexaen-7-yl]-3-methyl-butanamide] | 22 | 27 | 29 | < 1
CCn1c(-c2cc(N3CCOCC3)cnc2[C@H](C)OC)c2c3cc(c(F)cc31)-c1csc(n1)C[C@H](NC(=O)[C@H](C(C)C)N(C)C(=O)C1(F)CCN(C(=O)[C@H](F)Cl)CC1)C(=O)N1CCC[C@H](N1)C(=O)OCC(C)(C)C2 (atropisomer, axis not shown; (M)) [Example 54, 1-[(2R)-2-chloro-2-fluoro-acetyl]-N-[(1S)-1-[[(7S,13S)-21-ethyl-24-fluoro-(20M)-20-[2-[(1S)-1-methoxyethyl]-5-morpholino-3-pyridyl]-17,17-dimethyl-8,14-dioxo-15-oxa-4-thia-9,21,27,28-tetrazapentacyclo[17.5.2.1^2,5.1^9,13.0^22,26]octacosa-1(25),2,5(28),19,22(26),23-hexaen-7-yl]carbamoyl]-2-methyl-propyl]-4-fluoro-N-methyl-piperidine-4-carboxamide] | 15 | 25 | 13 | 2
CO[C@@H](C)c1ncc(N2CCN(C)CC2)cc1-c1c2c3c(F)c(ccc3n1CC(F)(F)F)-c1csc(n1)C[C@H](NC(=O)[C@H](C(C)C)N1CCCC3(CCN(C(=O)[C@H](F)Cl)CC3)C1=O)C(=O)N1CCC[C@H](N1)C(=O)OCC(C)(C)C2 (atropisomer, axis not shown; (M)) [Example 20, (2S)-2-[9-[(2R)-2-chloro-2-fluoro-acetyl]-1-oxo-2,9-diazaspiro[5.5]undecan-2-yl]-N-[(7S,13S)-25-fluoro-(20M)-20-[2-[(1S)-1-methoxyethyl]-5-(4-methylpiperazin-1-yl)-3-pyridyl]-17,17-dimethyl-8,14-dioxo-21-(2,2,2-trifluoroethyl)-15-oxa-4-thia-9,21,27,28-tetrazapentacyclo[17.5.2.1^2,5.1^9,13.0^22,26]octacosa-1(25),2,5(28),19,22(26),23-hexaen-7-yl]-3-methyl-butanamide] | 73 | 98 | 66 | 5
CO[C@@H](C)c1ncc(N2CCN(C)CC2)cc1-c1c2c3cc(c(F)cc3n1CC(F)(F)F)-c1cc(O)cc(c1)C[C@H](NC(=O)[C@H](C(C)C)N(C)C(=O)[C@H]1CCN(C(=O)[C@H](F)Cl)C1)C(=O)N1CCC[C@H](N1)C(=O)OCC(C)(C)C2 (atropisomer, axis not shown; (M)) [Example 8, (3S)-1-[(2R)-2-chloro-2-fluoro-acetyl]-N-[(1S)-1-[[(8S,14S)-25-fluoro-4-hydroxy-(21M)-21-[2-[(1S)-1-methoxyethyl]-5-(4-methylpiperazin-1-yl)-3-pyridyl]-18,18-dimethyl-9,15-dioxo-22-(2,2,2-trifluoroethyl)-16-oxa-10,22,28-triazapentacyclo[18.5.2.1^2,6.1^10,14.0^23,27]nonacosa-1(26),2,4,6(29),20,23(27),24-heptaen-8-yl]carbamoyl]-2-methyl-propyl]-N-methyl-pyrrolidine-3-carboxamide] | 127 | 90 | 175 | 2
CCn1c(-c2cc(N3CCN(CC(F)(F)F)CC3)cnc2[C@H](C)OC)c2c3cc(c(F)cc31)-c1csc(n1)C[C@H](NC(=O)[C@H](C(C)C)N(C)C(=O)C1(F)CCN(C(=O)[C@H](F)Cl)CC1)C(=O)N1CCC[C@H](N1)C(=O)OCC(C)(C)C2 (atropisomer, axis not shown; (M)) [Example 49, 1-[(2R)-2-chloro-2-fluoro-acetyl]-N-[(1S)-1-[[(7S,13S)-21-ethyl-24-fluoro-(20M)-20-[2-[(1S)-1-methoxyethyl]-5-[4-(2,2,2-trifluoroethyl)piperazin-1-yl]-3-pyridyl]-17,17-dimethyl-8,14-dioxo-15-oxa-4-thia-9,21,27,28-tetrazapentacyclo[17.5.2.1^2,5.1^9,13.0^22,26]octacosa-1(25),2,5(28),19,22(26),23-hexaen-7-yl]carbamoyl]-2-methyl-propyl]-4-fluoro-N-methyl-piperidine-4-carboxamide] | 20 | 65 | 42 | 3
CO[C@@H](C)c1ncc(N2CCN(C)CC2)cc1-c1c2c3cc(c(C)cc3n1CC(F)(F)F)-c1csc(n1)C[C@H](NC(=O)[C@H](C(C)C)N(C)C(=O)C1(F)CCN(C(=O)[C@H](F)Cl)CC1)C(=O)N1CCC[C@H](N1)C(=O)OCC(C)(C)C2 (atropisomer, axis not shown; (M)) [Example 9, 1-[(2R)-2-chloro-2-fluoro-acetyl]-4-fluoro-N-[(1S)-1-[[(7S,13S)-(20M)-20-[2-[(1S)-1-methoxyethyl]-5-(4-methylpiperazin-1-yl)-3-pyridyl]-17,17,24-trimethyl-8,14-dioxo-21-(2,2,2-trifluoroethyl)-15-oxa-4-thia-9,21,27,28-tetrazapentacyclo[17.5.2.1^2,5.1^9,13.0^22,26]octacosa-1(25),2,5(28),19,22(26),23-hexaen-7-yl]carbamoyl]-2-methyl-propyl]-N-methyl-piperidine-4-carboxamide] | 22 | 23 | 28 | 3
CO[C@@H](C)c1ncc(N2CCN(C)CC2)cc1-c1c2c3cc(c(F)cc3n1CC(F)(F)F)-c1csc(n1)C[C@H](NC(=O)[C@H](C(C)C)N1CCC[C@@]3(CCN(C(=O)[C@H](F)Cl)C3)C1=O)C(=O)N1CCC[C@H](N1)C(=O)OCC(C)(C)C2 (single isomer, unassigned) [Example 16] | 15 | 19 | 22 | 1
CO[C@@H](C)c1ncc(N2CCN(C)CC2)cc1-c1c2c3cc(c(F)cc3n1CC(F)(F)F)-c1csc(n1)C[C@H](NC(=O)[C@H](C(C)C)N1CCC[C@]3(CCN(C(=O)[C@H](F)Cl)C3)C1=O)C(=O)N1CCC[C@H](N1)C(=O)OCC(C)(C)C2 (single isomer, unassigned) [Example 18] | 18 | 26 | 19 | 3
CCn1c(-c2cc(N3CCOCC3)cnc2[C@H](C)OC)c2c3cc(c(F)cc31)-c1csc(n1)C[C@H](NC(=O)[C@H](C(C)C)N1CCC3(CN(C(=O)[C@H](F)Cl)C3)C1=O)C(=O)N1CCC[C@H](N1)C(=O)OCC(C)(C)C2 (atropisomer, axis not shown; (M)) [Example 52, (2S)-2-[2-[(2R)-2-chloro-2-fluoro-acetyl]-5-oxo-2,6-diazaspiro[3.4]octan-6-yl]-N-[(7S,13S)-21-ethyl-24-fluoro-(20M)-20-[2-[(1S)-1-methoxyethyl]-5-morpholino-3-pyridyl]-17,17-dimethyl-8,14-dioxo-15-oxa-4-thia-9,21,27,28-tetrazapentacyclo[17.5.2.1^2,5.1^9,13.0^22,26]octacosa-1(25),2,5(28),19,22(26),23-hexaen-7-yl]-3-methyl-butanamide] | 58 | 103 | 196 | 4
CO[C@@H](C)c1ncc(N2CCN(C)CC2)cc1-c1c2c3cc(c(F)cc3n1CC(F)(F)F)-c1csc(n1)C[C@H](NC(=O)[C@H](C(C)C)N(C)C(=O)C1(F)CCN(C(=O)[C@H](F)Cl)CC1)C(=O)N1CCC[C@H](N1)C(=O)OCC(C)(C)C2 (atropisomer, axis not shown; (M)) [Example 10, 1-[(2R)-2-chloro-2-fluoro-acetyl]-4-fluoro-N-[(1S)-1-[[(7S,13S)-24-fluoro-(20M)-20-[2-[(1S)-1-methoxyethyl]-5-(4-methylpiperazin-1-yl)-3-pyridyl]-17,17-dimethyl-8,14-dioxo-21-(2,2,2-trifluoroethyl)-15-oxa-4-thia-9,21,27,28-tetrazapentacyclo[17.5.2.1^2,5.1^9,13.0^22,26]octacosa-1(25),2,5(28),19,22(26),23-hexaen-7-yl]carbamoyl]-2-methyl-propyl]-N-methyl-piperidine-4-carboxamide] | 6 | 16 | 8 | < 1
